This experiment has as its target T1, HCN3 channel (Homo sapiens, UniProt Q9P1Z3).
T1 construct: expressed in transfected cells; host or cells: HEK-293H
T1 sequence (Q9P1Z3 1-774): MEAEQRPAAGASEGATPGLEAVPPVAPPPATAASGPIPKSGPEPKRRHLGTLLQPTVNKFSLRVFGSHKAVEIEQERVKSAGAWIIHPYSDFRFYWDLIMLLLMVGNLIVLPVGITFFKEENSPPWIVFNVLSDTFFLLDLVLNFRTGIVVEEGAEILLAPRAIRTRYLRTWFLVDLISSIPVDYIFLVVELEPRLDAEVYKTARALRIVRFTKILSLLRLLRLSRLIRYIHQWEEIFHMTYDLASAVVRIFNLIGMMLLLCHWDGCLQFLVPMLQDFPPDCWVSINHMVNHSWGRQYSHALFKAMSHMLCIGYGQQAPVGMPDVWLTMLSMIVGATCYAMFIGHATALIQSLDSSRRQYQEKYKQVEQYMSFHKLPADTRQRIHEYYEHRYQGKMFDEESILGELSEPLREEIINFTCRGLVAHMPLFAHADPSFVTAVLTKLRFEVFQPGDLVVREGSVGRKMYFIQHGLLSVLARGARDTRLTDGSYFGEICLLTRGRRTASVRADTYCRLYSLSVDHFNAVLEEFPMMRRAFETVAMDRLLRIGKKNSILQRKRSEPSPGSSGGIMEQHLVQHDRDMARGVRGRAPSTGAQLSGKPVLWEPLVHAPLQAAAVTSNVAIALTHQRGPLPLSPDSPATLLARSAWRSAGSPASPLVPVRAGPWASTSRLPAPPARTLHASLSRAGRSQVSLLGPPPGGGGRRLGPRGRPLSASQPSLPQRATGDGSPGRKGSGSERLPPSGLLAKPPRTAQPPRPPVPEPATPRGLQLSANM
Kind of experiment: MPSD FLIPR/FLEX 96 well hyperpolarization assay, HCN3. The format is cell-based. The following applies: HCN3 channel expressing HEK-293H cells, ZD7288 30 μM (FIG. 7A). The method, then: The above-described assay was modified for use with the FLIPR®^96 or FLEX^96 96 well plate format. In brief, cells stably expressing HCN channels were plated at 40-80×10^3 cells/plate in 100-150 μl/well of DMEM supplemented with 10% fetal bovine serum, 1× NEAA, and 1× penicillin/streptomycin. Cells were cultured for 24-48 hours in a 5% CO2/air humidifiedincubator at 37° C. Cells were incubated in 30 μl/well of HBSS containing MPSD, as described above, for 15-45 minutes at room temperature.
Membrane potentials were measured at room temperature (21°-23°) using a FLIPR® system or a FLEXSTATION® (Molecular Devices of Sunnydale, Calif.). Control cells were incubated in HBSS/MPSD without a test agent. For identification of HCN channel modulators, cells were incubated in HBSS/MPSD and the presence of a test agent as described in Examples 5 and 6 herein below. […]
Cells were incubated in 30 μl HBSS supplemented with MPSD with or without 50 μM of the channel inhibitor ZD7288, dissolved in <1.0% dimethyl sulfoxide (DMSO) added to the HBSS solution. […] The change in fluorescence (ΔF) was measured for a total assay time of about 100 seconds. […]
FIG. 6A depicts the whole-plate screenshot of the changes in fluorescence/membrane potential over time. FIG. 7A depicts the change in fluorescence (F) over time for control cells (upper trace) and for cells exposed to ZD7288 at a concentration of 30 μM (lower trace). […]

This is an account of results in patent publication US20090029366A1 (priority 2007, published 2009).

As to `CCN(c1ccccc1)c1cc(=NC)n(C)c(C)n1.Cl` [ZD7288], the “blockade of hyperpolarization (change in fluorescence)” value is given as “effectively blocked hyperpolarization”.
